Assay results published in article PMC7352759, “S(+)-(2E)-N-(2-Hydroxypropyl)-3-Phenylprop-2-Enamide (KM-568): A Novel Cinnamamide Derivative with Anticonvulsant Activity in Animal Models of Seizures and Epilepsy” (International Journal of Molecular Sciences, 2020).

Assays:
mice [1] = assay: Subcutaneous metrazol seizure threshold test (scMET), mice; format: in vivo; details: for ED50: Mus musculus, 95% confidence interval in parentheses
Experimental: In vivo activity testing was performed at the Epilepsy Branch, National Institute of Neurological Disorders and Stroke, National Institutes of Health (NIH, Bethesda, USA) within the Anticonvulsant Screening Program (ASP) (currently known as the Epilepsy Therapy Screening Program (ETSP)). Pharmacological evaluation was planned and performed in accordance with the Institute of Laboratory Resources polices on the humane care of laboratory animals and approved by the University of Utah’s Institutional Animal Care and Use Committee (IACUC). All testing protocols were previously published as well as they are available on the NIH website. In the tests, albino mice Carworth Farms No.1 (CF-1) (Charles River), C57/Bl6 mice (Charles River), Frings mice (University of Utah) or male rats Sprague–Dawley (Charles River) were used. All animals were housed, fed, and handled in a manner consistent with the recommendations in the National Council Publication, ‘Guide for the Care and Use of Laboratory animals’ [51]. The tested compound was suspended in 0.5% methylcellulose.
The tested compound was administered i.p. or p.o. at certain dose. Then, subcutaneous injection of metrazol (syn. pentetrazol, pentylenepentetrazol) dissolved in 0.9% NaCl at the dose of 85 mg/kg (mice) or 70 mg/kg (rats) was performed to induce seizures. Protection was scored if there was not an observed episode of clonic spasm of at least 5 sec.

mice [2] = assay: 6-Hz psychomotor seizure model (32 mA, 44 mA); format: in vivo; details: for ED50: Mus musculus, ip, 95% confidence interval in parentheses; for 6-Hz (32 mA) Results (protected/tested animals) / 6-Hz (44 mA) Results (protected/tested animals): i.p.
Experimental: The test was performed after 0.25 h (for 32 mA current) or 0.5 h (for 44 mA current) of i.p. administration of compound KM-568. The groups of 8 animals were challenged for a single dose of the tested compounds. In addition, 0.2 ms pulses of electric current at 6 Hz and 32 mA or 44 mA were delivered for 3 sec via corneal electrodes. The mouse was released into an observation cage immediately after stimulation. The electric stimulation in a 6-Hz test causes a minimal clonic phase followed by stereotyped, automatic behaviors. The seizure activity can be described as stun, forelimb clonus, twitching of the vibrissae, and Straub tail. The protection was scored if the mouse resumed its normal activity within 10 sec from the stimulation.

CF-1 mice = assay: Intravenous metrazol seizure threshold test (ivMET); format: in vivo; details: 0.25 h, mean ± SEM; for Time to clonus / Time to twitch: ten animals
Experimental: Then, 0.5% metrazol solution was then infused at a previously determined time-to-peak effect (0.25 h). The infusion was done at a constant rate of 0.34 mL/min through a tube cannulating a lateral tail vein of a test animal. The time from the start of the infusion to the appearance of the first twitch (time to twitch in sec) and the onset of sustained clonus (time to clonus in sec) were recorded. These times were also converted to the dose of metrazol (in mg/kg) causing first twitch and clonus.

[3] = biological target: T1, human recombinant TRPV1 receptor expressed in CHO cells (Homo sapiens, UniProt Q8NER1); assay: TRPV1 functional assay (agonist and antagonist effects); format: cell-based; details: 10 µM
T1 construct: host or cells: CHO cells
Experimental: In order to identify molecular mechanism of action, KM-568 was tested at 10 µM in three radioligand binding assays: rat cerebral cortex GABA receptor non-selective agonist radioligand, AMPA (α-amino-3-hydroxy-5-methyl-4-isoxazolepropionic acid) receptor agonist radioligand, and NMDA (N-methyl-D-aspartate) receptor antagonist radioligand as well as one functional assay involving a human recombinant TRPV1 receptor expressed in CHO cells (agonist and antagonist effects).
Tests were performed by Eurofins Cerep (Eurofins CEREP SA, Celle-Lévescault, France) as a commercial service. In radioligand assays, rat cerebral cortex GABA receptor as well as rat cerebral cortex AMPA (α-amino-3-hydroxy-5-methyl-4-isoxazolepropionic acid) and NMDA (N-methyl-D-aspartate) receptors with 10 nM [^3H]GABA, 8 nM [^3H]AMPA, and 5 nM [^3H]CGP39653, respectively, were used. The results were detected by means of scintillation counting. In functional assays, a human recombinant TRPV1 receptor expressed in Chinese hamster ovary (CHO) cells with 1 µM capsaicin or 30 nM capsazepine were used. Fluorimetry was used as a detection method.

HepG2 cells = assay: MTT cytotoxicity assay, HepG2; format: cell-based, human
Experimental: Human liver cancer HepG2 cell line (ATCC HB8065) and rat cardiomyoblast cell line H9c2 (ATCC-CRL1446) were purchased in ATCC (American Type Culture Collection, Manassas, VA, USA). The cells were cultured in standard conditions (37 °C, 5% CO2) in EMEM medium (ATCC, Manassas, VA, USA), supplemented with 10% FBS (Gibco, Waltham, MA, USA) and antibiotics (1% streptomycin/penicillin mixture, Sigma–Aldrich, Darmstadt, Germany) or DMEM high glucose (ATCC, Manassas, VA, USA) supplemented with 10% FBS (Gibco, Waltham, MA, USA) and antibiotics (1% streptomycin/penicillin mixture, Sigma–Aldrich, Darmstadt, Germany), respectively.
The MTT colorimetric assay was used to determine the cytotoxic effects of the KM-568 and DOX (Sigma–Aldrich, Darmstadt, Germany). Cells were seeded at a density of 1 × 10^4 in 96-well plates. Following overnight culture, the cells were then treated with KM-568 and DOX in concentration range 0.1–200 µM (hepatocytotoxicity) or 0.1–100 µM (cardiocytotoxicity). Following cell exposure to each drug for 24 h in 96 well plates, 10 µL MTT reagent (Sigma–Aldrich, Darmstadt, Germany) was added to each well; after 4 h of incubation (37 °C, 5% CO2), the medium was aspirated and formazan produced in cells appeared as dark crystals in the bottom of the wells. […] Then, absorbance was measured at 570 nm on a multi-well plate reader (Spectra Max iD3, Molecular Devices, San Jose, CA, USA). […]

T1 sequence (Q8NER1 whole entry): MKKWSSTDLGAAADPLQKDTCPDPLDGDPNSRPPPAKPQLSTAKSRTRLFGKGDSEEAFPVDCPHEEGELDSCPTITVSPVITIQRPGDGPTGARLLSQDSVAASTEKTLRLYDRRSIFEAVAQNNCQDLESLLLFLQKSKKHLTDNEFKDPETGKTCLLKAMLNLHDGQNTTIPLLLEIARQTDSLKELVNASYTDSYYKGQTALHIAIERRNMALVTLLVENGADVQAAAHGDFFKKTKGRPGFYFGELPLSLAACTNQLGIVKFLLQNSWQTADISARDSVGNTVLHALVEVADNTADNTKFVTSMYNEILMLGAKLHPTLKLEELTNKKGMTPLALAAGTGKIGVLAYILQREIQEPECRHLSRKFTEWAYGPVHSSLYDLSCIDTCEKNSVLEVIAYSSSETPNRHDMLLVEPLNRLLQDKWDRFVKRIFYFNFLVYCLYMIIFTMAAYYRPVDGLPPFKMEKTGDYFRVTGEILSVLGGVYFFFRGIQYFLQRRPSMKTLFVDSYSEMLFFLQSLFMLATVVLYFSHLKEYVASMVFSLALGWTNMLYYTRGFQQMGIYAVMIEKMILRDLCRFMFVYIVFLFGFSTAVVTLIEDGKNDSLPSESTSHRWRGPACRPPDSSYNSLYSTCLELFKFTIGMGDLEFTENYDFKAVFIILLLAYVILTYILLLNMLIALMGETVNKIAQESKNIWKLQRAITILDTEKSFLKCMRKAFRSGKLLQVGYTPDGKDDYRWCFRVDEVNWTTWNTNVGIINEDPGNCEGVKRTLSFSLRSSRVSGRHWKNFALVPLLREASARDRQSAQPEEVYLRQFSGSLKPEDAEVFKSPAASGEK

## C[C@H](O)CNC(=O)/C=C/c1ccccc1 [KM-568, S(+)-(2E)-N-(2-hydroxypropyl)-3-phenylprop-2-enamide]
Mice [1]; ip, 0.25 h
  ED50: 104 mg/kg
Mice [1]; po, 0.5 h
  ED50: 107 mg/kg
Mice [1]; i.p., 70 mg/kg, 0.25 h
  scMET Results (protected/tested animals): 2/8
Mice [1]; i.p., 100 mg/kg, 0.25 h
  scMET Results (protected/tested animals): 3/8
Mice [1]; i.p., 138 mg/kg, 0.25 h
  scMET Results (protected/tested animals): 5/8
Mice [1]; i.p., 170 mg/kg, 0.25 h
  scMET Results (protected/tested animals): 8/8
Mice [1]; p.o., 50 mg/kg, 0.5 h
  scMET Results (protected/tested animals): 1/8
Mice [1]; p.o., 100 mg/kg, 0.5 h
  scMET Results (protected/tested animals): 4/8
Mice [1]; p.o., 150 mg/kg, 0.5 h
  scMET Results (protected/tested animals): 4/8
Mice [1]; p.o., 200 mg/kg, 0.5 h
  scMET Results (protected/tested animals): 8/8
Mice [2]; 32 mA, 0.25 h, read-out: 6-Hz (32 mA) ED50
  ED50: 71.5 mg/kg
Mice [2]; 44 mA, 0.5 h, read-out: 6-Hz (44 mA) ED50
  ED50: 114 mg/kg
Mice [2]; 50 mg/kg, 0.25 h
  6-Hz (32 mA) Results (protected/tested animals): 1/8
Mice [2]; 50 mg/kg, 0.5 h
  6-Hz (44 mA) Results (protected/tested animals): 0/8
Mice [2]; 75 mg/kg, 0.25 h
  6-Hz (32 mA) Results (protected/tested animals): 3/8
Mice [2]; 87 mg/kg, 0.25 h
  6-Hz (32 mA) Results (protected/tested animals): 7/8
Mice [2]; 100 mg/kg, 0.5 h
  6-Hz (44 mA) Results (protected/tested animals): 3/8
Mice [2]; 110 mg/kg, 0.25 h
  6-Hz (32 mA) Results (protected/tested animals): 8/8
Mice [2]; 150 mg/kg, 0.5 h
  6-Hz (44 mA) Results (protected/tested animals): 6/8
Mice [2]; 200 mg/kg, 0.5 h
  6-Hz (44 mA) Results (protected/tested animals): 8/8
CF-1 mice; 44 mg/kg i.p.
  Clonus (calculated metrazol dose causing clonus): 50.8 ± 3.5 mg/kg
  Twitch (calculated metrazol dose causing first twitch): 37.8 ± 1.4 mg/kg
  Time to clonus: 48.2 ± 3.5 s
  Time to twitch: 35.8 ± 1.5 s
CF-1 mice; 148 mg/kg i.p.
  Clonus (calculated metrazol dose causing clonus): 80.2 ± 3.2 mg/kg
  Twitch (calculated metrazol dose causing first twitch): 61.3 ± 2.2 mg/kg
  Time to clonus: 75.9 ± 2.9 s
  Time to twitch: 57.9 ± 1.6 s
[3]
  TRPV1 agonist effect: No significant effects
  TRPV1 antagonist effect: No significant effects
HepG2 cells; HepG2, 24 h incubation with 100 µM
  percent of living cells: ~100%
HepG2 cells; HepG2, up to 100 µM, 24 h
  cytotoxic effect, MTT assay: no cytotoxic effect
